Experimental data taken from paper PMC11149917, “Translational and Therapeutic Evaluation of RAS-GTP Inhibition by RMC-6236 in RAS-Driven Cancers” (Cancer Discovery, 2024).
Where two headings read alike, the source gives them in different places.

Experiment: Mouse blood and tissue PK (LC/MS-MS)
Assay type: in vivo
Conditions: for Kp: tumor relative to whole blood
Protocol: For single-dose PKPD study, mice were randomized and assigned into groups (n = 3/dose/time point). […] Blood and tissues, including the tumor, brain, colon, ear skin, and muscle, were harvested at indicated time points. […] The whole blood, tumor, brain, colon, and ear skin concentrations of RMC-6236 were determined using liquid chromatography–tandem mass spectrometry (LC/MS-MS) methods. […] After thorough mixing and centrifugation, the supernatant was diluted with water or directly analyzed on a Sciex 5500 or Sciex 6500+ triple quadrupole mass spectrometer equipped with an ACQUITY or Shimadzu UPLC system. […] Bioanalysis on blood and tissue samples from xenograft models was run at Pharmaron and Wuxi AppTec. Concentrations reported as below the quantification limit were treated as zero for PK analysis. PK parameters were calculated by noncompartmental analysis of the concentration–time profiles using Phoenix WinNonLin (version 8.3 Certara). Apparent terminal elimination half-life (t1/2) values were calculated as ln(2)/k, where k represents the terminal elimination rate constant. Area under the concentration–time curve (AUC) values were estimated using a linear trapezoidal method. AUClast values were calculated from the dosing time to the last quantifiable concentration. Maximum concentration (Cmax) was recorded as observed.

[1] = NCI-H2122 (25 mg/kg), single dose

Question: Which results are given for `CCn1c(-c2cc(N3CCN(C)CC3)cnc2[C@H](C)OC)c2c3cc(ccc31)-c1csc(n1)C[C@H](NC(=O)[C@H]1C[C@@H]1C)C(=O)N1CCC[C@H](N1)C(=O)OCC(C)(C)C2` [RMC-6236]?
Answer: Tumor AUClast [1]: 50057 ng·h/mL; Tumor Cmax [1]: 3350 ng/mL; Brain Cmax (Naïve Mice #1 (10 mg/kg), single dose): 25 ng/mL; Brain Cmax (Naïve Mice #1 (50 mg/kg), single dose): 161 ng/mL; concentration at 4 h (mouse, ear skin, oral, 25 mg/kg, sheet Ear Skin, model KP-4, study KP-4 #5, 25 mg/kg, read-out: RMC-6236 (nM) Tumor): 2790 nM; concentration at 8 h (mouse, ear skin, oral, 25 mg/kg, sheet Ear Skin, model KP-4, study KP-4 #5, 25 mg/kg, 8h, read-out: RMC-6236 (nM) Tumor): 1610 nM; concentration at 48 h (mouse, ear skin, oral, 25 mg/kg, sheet Ear Skin, model KP-4, study KP-4 #5, 25 mg/kg, 48h, read-out: RMC-6236 (nM) Tumor): 221 nM; Kp (mouse, oral, 3 mg/kg, NCI-H441 (3 mg/kg), single dose, read-out: Tumor/Blood AUC Ratio): 5.4; Kp (mouse, oral, 10 mg/kg, NCI-H441 (10 mg/kg), single dose, read-out: Tumor/Blood AUC Ratio): 4.6; Kp (mouse, oral, 25 mg/kg, HPAC (25 mg/kg), single dose, read-out: Tumor/Blood AUC Ratio): 6.6; Kp (mouse, oral, 25 mg/kg, KP-4 (25 mg/kg), single dose, read-out: Tumor/Blood AUC Ratio): 6.4; Kp (mouse, oral, 25 mg/kg, NCI-H358 (25 mg/kg), single dose, read-out: Tumor/Blood AUC Ratio): 5.9; Kp (mouse, oral, 25 mg/kg, NCI-H441 #2 (25 mg/kg), QD x 10 days, read-out: Tumor/Blood AUC Ratio): 4.9; Kp (mouse, oral, 25 mg/kg, NCI-H441 (25 mg/kg), single dose, read-out: Tumor/Blood AUC Ratio): 6.1; Kp (mouse, oral, 25 mg/kg, NCI-H2122 (25 mg/kg), single dose, read-out: Tumor/Blood AUC Ratio): 6.3; Kp (mouse, oral, various xenograft tumors, read-out: exposure in xenograft tumors relative to blood): 3 to 7; concentration at 8 h (mouse, tumor, oral, 0.3 mg/kg, HPAC #11, 0.3 mg/kg, 8h, individual animals, read-out: RMC-6236 (nM) Tumor): 37 nM; concentration at 24 h (mouse, tumor, oral, 0.3 mg/kg, NCI-H441 xenograft tumor, study NCI-H441#10, 0.3 mg/kg, 24h, read-out: RMC-6236 (nM) Tumor): 36.8 nM; concentration at 8 h (mouse, tumor, oral, 0.3 mg/kg, NCI-H441 xenograft tumor, study NCI-H441#13, 0.3 mg/kg, 8h, read-out: RMC-6236 (nM) Tumor): 89.5 nM; concentration at 8 h (mouse, tumor, oral, 1 mg/kg, HPAC #11, 1 mg/kg, 8h, individual animals, read-out: RMC-6236 (nM) Tumor): 216 nM; concentration at 8 h (mouse, tumor, oral, 1 mg/kg, NCI-H441 xenograft tumor, study NCI-H441#10, 1 mg/kg, 8h, read-out: RMC-6236 (nM) Tumor): 129 nM; concentration at 8 h (mouse, tumor, oral, 1 mg/kg, NCI-H441 xenograft tumor, study NCI-H441#13, 1 mg/kg, 8h, read-out: RMC-6236 (nM) Tumor): 114 nM; concentration at 24 h (mouse, tumor, oral, 1 mg/kg, NCI-H441 xenograft tumor, study NCI-H441#13, 1 mg/kg, 24h, read-out: RMC-6236 (nM) Tumor): 53.2 nM; concentration at 8 h (mouse, tumor, oral, 3 mg/kg, HPAC #4, 3 mg/kg, 8h, individual animals, read-out: RMC-6236 (nM) Tumor): 245 nM; concentration at 24 h (mouse, tumor, oral, 3 mg/kg, HPAC #4, 3 mg/kg, 24h, individual animals, read-out: RMC-6236 (nM) Tumor): 205 nM; concentration at 48 h (mouse, tumor, oral, 3 mg/kg, HPAC #4, 3 mg/kg, 48h, individual animals, read-out: RMC-6236 (nM) Tumor): 31.9 nM; concentration at 4 h (mouse, tumor, oral, 3 mg/kg, KP-4, study KP-4 #6, 3 mg/kg, read-out: RMC-6236 (nM) Tumor): 264 nM; concentration at 8 h (mouse, tumor, oral, 3 mg/kg, KP-4, study KP-4 #6, 3 mg/kg, 8h, read-out: RMC-6236 (nM) Tumor): 340 nM; concentration at 12 h (mouse, tumor, oral, 3 mg/kg, KP-4, study KP-4 #6, 3 mg/kg, 12h, read-out: RMC-6236 (nM) Tumor): 298 nM; concentration at 48 h (mouse, tumor, oral, 3 mg/kg, KP-4, study KP-4 #6, 3 mg/kg, 48h, read-out: RMC-6236 (nM) Tumor): 29 nM; concentration at 24 h (mouse, tumor, oral, 3 mg/kg, NCI-H441 xenograft tumor, study NCI-H441#6, 3 mg/kg, 24h, read-out: RMC-6236 (nM) Tumor): 159 nM; concentration at 48 h (mouse, tumor, oral, 3 mg/kg, NCI-H441 xenograft tumor, study NCI-H441#6, 3 mg/kg, 48h, read-out: RMC-6236 (nM) Tumor): 63 nM; concentration at 4 h (mouse, tumor, oral, 10 mg/kg, HPAC #4, 10 mg/kg, individual animals, read-out: RMC-6236 (nM) Tumor): 817 nM; concentration at 8 h (mouse, tumor, oral, 10 mg/kg, HPAC #4, 10 mg/kg, 8h, individual animals, read-out: RMC-6236 (nM) Tumor): 1230 nM; concentration at 24 h (mouse, tumor, oral, 10 mg/kg, HPAC #4, 10 mg/kg, 24h, individual animals, read-out: RMC-6236 (nM) Tumor): 300 nM; concentration at 48 h (mouse, tumor, oral, 10 mg/kg, HPAC #4, 10 mg/kg, 48h, individual animals, read-out: RMC-6236 (nM) Tumor): 128 nM; concentration at 48 h (mouse, tumor, oral, 10 mg/kg, KP-4, study KP-4 #6, 10 mg/kg, 48h, read-out: RMC-6236 (nM) Tumor): 235 nM; concentration at 1 h (mouse, tumor, oral, 10 mg/kg, Model Validation Dataset, 10mg/kg_study6, 1 h, read-out: Tumor Concentration): 340 nM; concentration at 8 h (mouse, tumor, oral, 10 mg/kg, Model Validation Dataset, 10mg/kg_study6, 8 h, read-out: Tumor Concentration): 1010 nM; concentration at 24 h (mouse, tumor, oral, 10 mg/kg, Model Validation Dataset, 10mg/kg_study6, 24 h, read-out: Tumor Concentration): 353 nM; concentration at 48 h (mouse, tumor, oral, 10 mg/kg, Model Validation Dataset, 10mg/kg_study6, 48 h, read-out: Tumor Concentration): 214 nM; concentration at 8 h (mouse, tumor, oral, 10 mg/kg, NCI-H441 xenograft tumor, study NCI-H441#6, 10 mg/kg, 8h, read-out: RMC-6236 (nM) Tumor): 904 nM; concentration at 24 h (mouse, tumor, oral, 10 mg/kg, NCI-H441 xenograft tumor, study NCI-H441#6, 10 mg/kg, 24h, read-out: RMC-6236 (nM) Tumor): 519 nM; concentration at 48 h (mouse, tumor, oral, 10 mg/kg, NCI-H441 xenograft tumor, study NCI-H441#6, 10 mg/kg, 48h, read-out: RMC-6236 (nM) Tumor): 213 nM; concentration at 8 h (mouse, tumor, oral, 10 mg/kg, NCI-H441 xenograft tumor, study NCI-H441#10, 10 mg/kg, 8h, read-out: RMC-6236 (nM) Tumor): 685 nM; concentration at 24 h (mouse, tumor, oral, 10 mg/kg, NCI-H441 xenograft tumor, study NCI-H441#10, 10 mg/kg, 24h, read-out: RMC-6236 (nM) Tumor): 541 nM; concentration at 48 h (mouse, tumor, oral, 10 mg/kg, NCI-H441 xenograft tumor, study NCI-H441#10, 10 mg/kg, 48h, read-out: RMC-6236 (nM) Tumor): 153 nM
